{"source": "patent US11938190B2", "about": "“Herbal extracts for treatment of herpesvirus infections” (KAMEDIS LTD., priority 2018, dated 2024)", "system": "Herpes Simplex Virus type 1 (HSV-1)", "assay": "microbe, parasite or virus in culture", "format": "cell-based", "conditions": "Human alphaherpesvirus 1; Example 2; acyclovir dose-response curve; EYFP-HSV-1, Vero cells", "data": [{"smiles": "Nc1nc2c(ncn2COCCO)c(=O)[nH]1", "note": "[Acyclovir]", "values": [{"measurement": "IC50", "value": "0.126 ± 0.014", "unit": "µg/mL"}]}]}
